Results published in patent US9475817B2 (BRISTOL-MYERS SQUIBB COMPANY, priority 2012, dated 2016).

Legend:
CK1ε = CK1ε (Homo sapiens (Human), UniProt P49674); experiment: CK1ε kinase assay (Caliper LabChip, fluoresceinated peptide substrate); format: biochemical; conditions: 200 pM CK1ε, 50 μM ATP, 1.5 μM peptide substrate, 22 hours room temperature
Procedure: (§1) CK1ε and CK1δ Kinase Assays
(§2) The kinase assay was performed in V-bottom 384-well plates. […] The reaction was incubated at room temperature for 22 hours and terminated by adding 45 μl of 35 mM EDTA to each sample. […] Compounds were dissolved at 10 mM in dimethylsulfoxide (DMSO) and evaluated at eleven concentrations. IC50 values were derived by non-linear regression analysis.

CK1δ = CK1δ (Homo sapiens (Human), UniProt P48730); experiment: CK1δ kinase assay (Caliper LabChip, fluoresceinated peptide substrate); format: biochemical; conditions: 200 pM CK1δ, 50 μM ATP, 1.5 μM peptide substrate, 22 hours room temperature
Chain of CK1δ (P48730 whole entry): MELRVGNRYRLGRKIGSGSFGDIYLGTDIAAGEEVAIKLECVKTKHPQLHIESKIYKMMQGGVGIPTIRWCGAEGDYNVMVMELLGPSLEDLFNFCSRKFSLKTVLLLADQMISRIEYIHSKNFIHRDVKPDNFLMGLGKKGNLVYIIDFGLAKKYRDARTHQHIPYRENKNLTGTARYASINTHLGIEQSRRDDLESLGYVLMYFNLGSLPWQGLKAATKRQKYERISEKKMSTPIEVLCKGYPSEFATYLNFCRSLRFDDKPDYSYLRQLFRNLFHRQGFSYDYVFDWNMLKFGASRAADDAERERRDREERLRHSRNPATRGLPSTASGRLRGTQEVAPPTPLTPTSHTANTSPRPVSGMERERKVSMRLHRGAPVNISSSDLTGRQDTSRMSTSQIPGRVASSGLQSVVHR
Procedure: as §1, §2

Chain of CK1ε (P49674 whole entry): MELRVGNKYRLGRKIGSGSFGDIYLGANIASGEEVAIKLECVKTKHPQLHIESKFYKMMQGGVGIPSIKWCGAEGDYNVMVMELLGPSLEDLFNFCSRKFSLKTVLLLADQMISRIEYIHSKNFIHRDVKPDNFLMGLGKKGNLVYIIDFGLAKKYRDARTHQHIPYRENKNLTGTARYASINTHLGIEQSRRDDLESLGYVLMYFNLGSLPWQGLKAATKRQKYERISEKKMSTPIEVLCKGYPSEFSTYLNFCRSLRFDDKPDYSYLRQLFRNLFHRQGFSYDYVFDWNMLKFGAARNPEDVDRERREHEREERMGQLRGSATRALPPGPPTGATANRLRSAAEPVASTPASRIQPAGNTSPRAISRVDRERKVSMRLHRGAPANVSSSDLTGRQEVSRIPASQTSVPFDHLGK

CN1CCC(c2c(-c3ccc4nc(NC(=O)c5ccncc5)cn4n3)c(-c3ccc(F)cc3)nn2C)CC1 [Compound 165, N-(6-(3-(4-Fluorophenyl)-1-methyl-5-(1-methylpiperidin-4-yl)-1H-pyrazol-4-yl)imidazo[1,2-b]pyridazin-2-yl)isonicotinamide]
IC50 (CK1ε): 5 nM | IC50 (CK1δ): 2.7 nM

Cn1nc(-c2ccc(F)cc2)c(-c2ccc3nc(NC(=O)c4ccncc4)cn3n2)c1C1CCN(C2CC2)CC1 [Compound 166, N-(6-(5-(1-cyclopropylpiperidin-4-yl)-3-(4-fluorophenyl)-1-methyl-1H-pyrazol-4-yl)imidazo[1,2-b]pyridazin-2-yl)isonicotinamide]
IC50 (CK1ε): 1.9 nM | IC50 (CK1δ): 1.4 nM

Cn1nc(-c2ccc(F)cc2)c(-c2ccc3nc(NC(=O)c4ccncc4)cn3n2)c1C1CCN(C2CCOCC2)CC1 [Compound 167, N-(6-(3-(4-fluorophenyl)-1-methyl-5-(1-(tetrahydro-2H-pyran-4-yl)piperidin-4-yl)-1H-pyrazol-4-yl)imidazo[1,2-b]pyridazin-2-yl)isonicotinamide]
IC50 (CK1ε): 7.7 nM | IC50 (CK1δ): 2.4 nM

Cn1nc(-c2ccc(F)cc2)c(-c2ccc3nc(NC(=O)c4ccncc4)cn3n2)c1C1CCN(CCO)CC1 [Compound 168, N-(6-(3-(4-fluorophenyl)-5-(1-(2-hydroxyethyl)piperidin-4-yl)-1-methyl-1H-pyrazol-4-yl)imidazo[1,2-b]pyridazin-2-yl)isonicotinamide]
IC50 (CK1ε): 1.5 nM | IC50 (CK1δ): 1.3 nM

Cn1nc(-c2ccc(F)cc2)c(-c2ccc3nc(NC(=O)c4ccncc4)cn3n2)c1C1CCN(Cc2ccon2)CC1 [Compound 169, N-(6-(3-(4-fluorophenyl)-5-(1-(isoxazol-3-ylmethyl)piperidin-4-yl)-1-methyl-1H-pyrazol-4-yl)imidazo[1,2-b]pyridazin-2-yl)isonicotinamide]
IC50 (CK1ε): 0.8 nM | IC50 (CK1δ): 1.4 nM

Cn1nc(-c2ccc(F)cc2)c(-c2ccc3nc(NC(=O)c4ccncc4)cn3n2)c1C1CCN(Cc2cc[nH]n2)CC1 [Compound 170, N-(6-(5-(1-((1H-pyrazol-3-yl)methyl)piperidin-4-yl)-3-(4-fluorophenyl)-1-methyl-1H-pyrazol-4-yl)imidazo[1,2-b]pyridazin-2-yl) isonicotinamide]
IC50 (CK1ε): 7.4 nM | IC50 (CK1δ): 2.6 nM

Cn1nc(-c2ccc(F)cc2)c(-c2ccc3nc(NC(=O)c4ccncc4)cn3n2)c1C1CCN(Cc2cocn2)CC1 [Compound 172, N-(6-(3-(4-fluorophenyl)-1-methyl-5-(1-(oxazol-4-ylmethyl)piperidin-4-yl)-1H-pyrazol-4-yl)imidazo[1,2-b]pyridazin-2-yl) isonicotinamide]
IC50 (CK1ε): 10.4 nM | IC50 (CK1δ): 4.5 nM

Cn1nc(-c2ccc(F)cc2)c(-c2ccc3nc(NC(=O)c4ccncc4)cn3n2)c1C1CCN(Cc2nccs2)CC1 [Compound 173, N-(6-(3-(4-fluorophenyl)-1-methyl-5-(1-(thiazol-2-ylmethyl)piperidin-4-yl)-1H-pyrazol-4-yl)imidazo[1,2-b]pyridazin-2-yl) isonicotinamide]
IC50 (CK1ε): 6.4 nM | IC50 (CK1δ): 1.5 nM

Cc1nc(-c2cccnc2)sc1C(=O)Nc1cn2nc(-c3c(-c4ccc(F)cc4)nn(C)c3C3CCNCC3)ccc2n1 [Compound 174, N-(6-(3-(4-Fluorophenyl)-1-methyl-5-(piperidin-4-yl)-1H-pyrazol-4-yl)imidazo[1,2-b]pyridazin-2-yl)-4-methyl-2-(pyridin-3-yl)thiazole-5-carboxamide]
IC50 (CK1ε): 1.8 nM | IC50 (CK1δ): 2.5 nM

Cc1nc(-c2cccnc2)sc1C(=O)Nc1cn2nc(-c3c(-c4ccc(F)cc4)nn(C)c3C3CCN(C)CC3)ccc2n1 [Compound 175, N-(6-(3-(4-Fluorophenyl)-1-methyl-5-(1-methylpiperidin-4-yl)-1H-pyrazol-4-yl)imidazo[1,2-b]pyridazin-2-yl)-4-methyl-2-(pyridin-3-yl)thiazole-5-carboxamide]
IC50 (CK1ε): 4 nM | IC50 (CK1δ): 3 nM

Cc1nc(-c2cccnc2)sc1C(=O)Nc1cn2nc(-c3c(-c4ccc(F)cc4)nn(C)c3C3CCN(Cc4ccon4)CC3)ccc2n1 [Compound 176, N-(6-(3-(4-fluorophenyl)-5-(1-(isoxazol-3-ylmethyl)piperidin-4-yl)-1-methyl-1H-pyrazol-4-yl)imidazo[1,2-b]pyridazin-2-yl)-4-methyl-2-(pyridin-3-yl)thiazole-5-carboxamide]
IC50 (CK1ε): 0.4 nM | IC50 (CK1δ): 1 nM

Cc1nc(-c2cccnc2)sc1C(=O)Nc1cn2nc(-c3c(-c4ccc(F)cc4)nn(C)c3C3CCN(CCC(F)(F)F)CC3)ccc2n1 [Compound 177, N-(6-(3-(4-fluorophenyl)-1-methyl-5-(1-(3,3,3-trifluoropropyl)piperidin-4-yl)-1H-pyrazol-4-yl)imidazo[1,2-b]pyridazin-2-yl)-4-methyl-2-(pyridin-3-yl)thiazole-5-carboxamide]
IC50 (CK1ε): 12.2 nM | IC50 (CK1δ): 0.7 nM

Cc1nc(-c2cccnc2)sc1C(=O)Nc1cn2nc(-c3c(-c4ccc(F)cc4)nn(C)c3C3CCN(CC(N)=O)CC3)ccc2n1 [Compound 178, N-(6-(5-(1-(2-Amino-2-oxoethyl)piperidin-4-yl)-3-(4-fluorophenyl)-1-methyl-1H-pyrazol-4-yl)imidazo[1,2-b]pyridazin-2-yl)-4-methyl-2-(pyridin-3-yl)thiazole-5-carboxamide]
IC50 (CK1ε): 1.3 nM | IC50 (CK1δ): 0.2 nM

Cc1nc(-c2ccncc2)sc1C(=O)Nc1cn2nc(-c3c(-c4ccc(F)cc4)nn(C)c3C3CCNCC3)ccc2n1 [Compound 179, N-(6-(3-(4-Fluorophenyl)-1-methyl-5-(piperidin-4-yl)-1H-pyrazol-4-yl)imidazo[1,2-b]pyridazin-2-yl)-4-methyl-2-(pyridin-4-yl)thiazole-5-carboxamide]
IC50 (CK1ε): 1.5 nM | IC50 (CK1δ): 1.4 nM

Cc1nc(-c2ccncc2)sc1C(=O)Nc1cn2nc(-c3c(-c4ccc(F)cc4)nn(C)c3C3CCN(C)CC3)ccc2n1 [Compound 180, N-(6-(3-(4-Fluorophenyl)-1-methyl-5-(1-methylpiperidin-4-yl)-1H-pyrazol-4-yl)imidazo[1,2-b]pyridazin-2-yl)-4-methyl-2-(pyridin-4-yl)thiazole-5-carboxamide]
IC50 (CK1ε): 7.1 nM | IC50 (CK1δ): 2.1 nM

Cc1nc(-c2ccncc2)sc1C(=O)Nc1cn2nc(-c3c(-c4ccc(F)cc4)nn(C)c3C3CCN(CCC(F)(F)F)CC3)ccc2n1 [Compound 181, N-(6-(3-(4-fluorophenyl)-1-methyl-5-(1-(3,3,3-trifluoropropyl)piperidin-4-yl)-1H-pyrazol-4-yl)imidazo[1,2-b]pyridazin-2-yl)-4-methyl-2-(pyridin-4-yl)thiazole-5-carboxamide]
IC50 (CK1ε): 14.3 nM | IC50 (CK1δ): 1.1 nM

Cc1nc(-c2ccncc2)sc1C(=O)Nc1cn2nc(-c3c(-c4ccc(F)cc4)nn(C)c3C3CCN(Cc4ccon4)CC3)ccc2n1 [Compound 182, N-(6-(3-(4-fluorophenyl)-5-(1-(isoxazol-3-ylmethyl)piperidin-4-yl)-1-methyl-1H-pyrazol-4-yl)imidazo [1,2-b]pyridazin-2-yl)-4-methyl-2-(pyridin-4-yl)thiazole-5-carboxamide]
IC50 (CK1ε): 0.9 nM | IC50 (CK1δ): 1.7 nM

Cc1nc(-c2ccncc2)sc1C(=O)Nc1cn2nc(-c3c(-c4ccc(F)cc4)nn(C)c3C3CCN(CCC#N)CC3)ccc2n1 [Compound 183, N-(6-(5-(1-(2-Cyanoethyl)piperidin-4-yl)-3-(4-fluorophenyl)-1-methyl-1H-pyrazol-4-yl)imidazo[1,2-b]pyridazin-2-yl)-4-methyl-2-(pyridin-4-yl)thiazole-5-carboxamide]
IC50 (CK1ε): 2.4 nM | IC50 (CK1δ): 0.4 nM

Cc1nc(-c2ccncc2)sc1C(=O)Nc1cn2nc(-c3c(-c4ccc(F)cc4)nn(C)c3C3CCN(CC(N)=O)CC3)ccc2n1 [Compound 184, N-(6-(5-(1-(2-Amino-2-oxoethyl)piperidin-4-yl)-3-(4-fluorophenyl)-1-methyl-1H-pyrazol-4-yl)imidazo[1,2-b]pyridazin-2-yl)-4-methyl-2-(pyridin-4-yl)thiazole-5-carboxamide]
IC50 (CK1ε): 1.2 nM | IC50 (CK1δ): 0.3 nM

Cn1cc(-c2ccc3nc(Nc4ncccn4)cn3n2)c(-c2ccc(F)cc2)n1 [Compound 185, 6-(3-(4-Fluorophenyl)-1-methyl-1H-pyrazol-4-yl)-N-(pyrimidin-2-yl)imidazo[1,2-b]pyridazin-2-amine]
IC50 (CK1ε): 48 nM | IC50 (CK1δ): 16 nM

Cn1cc(-c2ccc3nc(NC(=O)Nc4ccccc4)cn3n2)c(-c2ccc(F)cc2)n1 [Compound 186, 1-(6-(3-(4-Fluorophenyl)-1-methyl-1H-pyrazol-4-yl)imidazo[1,2-b]pyridazin-2-yl)-3-phenylurea]
IC50 (CK1ε): 114 nM | IC50 (CK1δ): 14.6 nM

Cn1cc(-c2ccc3nc(NC(=O)OCc4ccccc4)cn3n2)c(-c2ccc(F)cc2)n1 [Compound 187, Benzyl 6-(3-(4-fluorophenyl)-1-methyl-1H-pyrazol-4-yl)imidazo[1,2-b]pyridazin-2-ylcarbamate]
IC50 (CK1ε): > 2000 nM | IC50 (CK1δ): 51.5 nM

Cn1cc(-c2ccc3nc(NC(=O)c4ccccc4)c(Br)n3n2)c(-c2ccc(F)cc2)n1 [Compound 189, N-(3-Bromo-6-(3-(4-fluorophenyl)-1-methyl-1H-pyrazol-4-yl)imidazo[1,2-b]pyridazin-2-yl)benzamide]
IC50 (CK1ε): 257 nM | IC50 (CK1δ): 38.8 nM

Cn1cc(-c2ccc3nc(NC(=O)c4ccccc4)c(C#N)n3n2)c(-c2ccc(F)cc2)n1 [Compound 190, N-(3-Cyano-6-(3-(4-fluorophenyl)-1-methyl-1H-pyrazol-4-yl)imidazo[1,2-b]pyridazin-2-yl)benzamide]
IC50 (CK1ε): 14.5 nM | IC50 (CK1δ): 4.2 nM

Cn1cc(-c2ccc3nc(NC(=O)c4ccccc4)c(Cl)n3n2)c(-c2ccc(F)cc2)n1 [Compound 191, N-(3-Chloro-6-(3-(4-fluorophenyl)-1-methyl-1H-pyrazol-4-yl)imidazo[1,2-b]pyridazin-2-yl)benzamide]
IC50 (CK1ε): 153 nM | IC50 (CK1δ): 24.5 nM
